In patent US20260297042A1, “BIARYLAMIDE DERIVATIVES AND THEIR USE AS PKMYT1 INHIBITORS” (CANCER RESEARCH TECHNOLOGY LIMITED, priority 2023, published 2026):
Counter-ions that a name gives are not always drawn.

Tests used:
WEE1 = molecular target: T1, WEE1 (Homo sapiens, UniProt P30291); assay: Selectivity versus WEE1 assay (ADP-Glo enzymatic assay); format: biochemical; details: for IC50: ADP-Glo; for PKMYT1 vs. WEE1 selectivity: fold difference in selectivity for PKMYT1 over WEE1
T1 construct: purchased Thermo Fisher PR7373A
How it was run: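 ADP-Glo luminescence read-out after a 60 min reaction at 26° C, initiated by 30 µM ATP, with 15 nM enzyme in HEPES pH 7.5/MgCl2/EGTA/Brij-35 buffer containing 1% DMSO. Replicate IC50 values had to agree within 3-fold and fits needed r2 >0.9.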

Human PKMYT1 = molecular target: T2, Human PKMYT1 (Homo sapiens, UniProt Q99640); assay: PKMYT1 biochemical ADP-Glo enzymatic assay
T2 construct: Human PKMYT1 75-362 was cloned as a TEV cleavable 6xHis fusion; 6xHis (TEV cleavable) (cleaved yes); made in house; host or cells: bacterial cells
T2 sequence (Q99640 75-362): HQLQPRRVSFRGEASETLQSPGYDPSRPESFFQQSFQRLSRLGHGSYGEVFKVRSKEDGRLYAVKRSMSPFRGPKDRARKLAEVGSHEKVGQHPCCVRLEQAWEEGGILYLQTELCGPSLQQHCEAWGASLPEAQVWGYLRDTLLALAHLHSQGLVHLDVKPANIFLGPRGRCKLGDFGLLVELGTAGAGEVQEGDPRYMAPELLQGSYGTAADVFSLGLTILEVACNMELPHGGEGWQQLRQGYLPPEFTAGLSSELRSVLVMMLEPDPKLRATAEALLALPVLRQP
How it was run: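 Luminescent ADP-Glo Max read-out of ADP produced by 15 nM PKMYT1 (residues 75-362, bacterial, His-tag removed) from 500 µM ATP without peptide substrate. Reaction: 50 mM HEPES pH 7.5, 10 mM MgCl2, 1 mM EGTA, 0.01% Brij-35, 60 min, 26 °C. IC50 values fitted from 10-point curves.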

[1] = 15 nM WEE1, 60 minutes at 26° C., banded
[2] = banded, ">N" = at least in this band but could be higher
[3] = ADP-Glo, 15 nM PKMYT1 kinase domain, 500 µM ATP, 60 minutes at 26° C., banded
[4] = PKMYT1 kinase domain 15 nM, ADP-Glo, banded values

T1 sequence (P30291 whole entry): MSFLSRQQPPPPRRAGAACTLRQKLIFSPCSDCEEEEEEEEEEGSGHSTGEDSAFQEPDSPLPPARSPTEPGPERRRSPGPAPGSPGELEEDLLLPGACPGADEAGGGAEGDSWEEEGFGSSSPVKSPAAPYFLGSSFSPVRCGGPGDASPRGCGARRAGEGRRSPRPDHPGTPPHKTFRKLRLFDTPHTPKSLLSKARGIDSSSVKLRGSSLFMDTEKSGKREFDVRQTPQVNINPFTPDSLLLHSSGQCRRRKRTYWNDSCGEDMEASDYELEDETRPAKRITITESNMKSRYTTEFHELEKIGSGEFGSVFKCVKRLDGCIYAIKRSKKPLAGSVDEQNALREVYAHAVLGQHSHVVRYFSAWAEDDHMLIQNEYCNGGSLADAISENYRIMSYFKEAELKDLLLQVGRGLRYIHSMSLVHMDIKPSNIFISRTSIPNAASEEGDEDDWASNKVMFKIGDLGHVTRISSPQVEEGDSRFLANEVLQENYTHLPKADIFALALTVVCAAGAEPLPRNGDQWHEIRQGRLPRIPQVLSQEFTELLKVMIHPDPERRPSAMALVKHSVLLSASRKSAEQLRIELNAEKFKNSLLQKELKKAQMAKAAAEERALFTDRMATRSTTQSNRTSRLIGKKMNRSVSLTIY

For `Cc1ccc(O)c(C)c1NC(=O)c1cnc(Nc2ccn([C@@H]3CCN(C(=O)C4CCOCC4)C3)n2)s1` [BAA-082], the IC50 (WEE1; [1]) was over 11000 nM, the “PKMYT1 vs. WEE1 selectivity” value (WEE1; [2]) was “>X (100-<1000 fold)” and the IC50 (Human PKMYT1; [3]) was 50 to 1000 nM.
In the case of `Cc1c(O)ccc(Br)c1NC(=O)c1cnc(Nc2ccn(C)n2)s1` [BAA-498, N-(6-bromo-3-hydroxy-2-methylphenyl)-2-((1-methyl-1H-pyrazol-3-yl)amino)thiazole-5-carboxamide], the IC50 (WEE1; WEE1 15 nM, banded values) is reported as 1000 to 11000 nM, the “PKMYT1 vs. WEE1 selectivity” value (WEE1; banded) is reported as “W (10-<100 fold)” and the IC50 (Human PKMYT1; [4]) is reported as 50 to 1000 nM.
`COC1CCN(C(=O)Cn2cc(C)c(Nc3ncc(C(=O)Nc4c(C)ccc(O)c4C)s3)n2)C1` (stereo not drawn) [BAA-538, N-(3-hydroxy-2,6-dimethylphenyl)-2-((1-(2-(3-methoxypyrrolidin-1-yl)-2-oxoethyl)-4-methyl-1H-pyrazol-3-yl)amino)thiazole-5-carboxamide] was tested, and the IC50 (WEE1; WEE1 15 nM, banded values) was 1000 to 11000 nM, the “PKMYT1 vs. WEE1 selectivity” value (WEE1; banded) was “X (100-<1000 fold)” and the IC50 (Human PKMYT1; [4]) was under 50 nM.
`Cc1ccc(O)c(C)c1NC(=O)c1cnc(Nc2ccn([C@@H]3CCNC3)n2)s1` [BAA-056, N-(3-hydroxy-2,6-dimethyl-phenyl)-2-[[1-[(3R)-pyrrolidin-3-yl]pyrazol-3-yl]amino]thiazole-5-carboxamide hydrochloride] was tested, and the IC50 (WEE1; [1]) was over 11000 nM, the “PKMYT1 vs. WEE1 selectivity” value (WEE1; [2]) was “X (100-<1000 fold)” and the IC50 (Human PKMYT1; [3]) was 50 to 1000 nM.
With `Cc1ccc(O)c(C)c1NC(=O)c1cnc(Nc2ccn(CC(=O)NCC3CCN(C(=O)OC(C)(C)C)CC3)n2)s1` [BAA-157] the IC50 (WEE1; [1]) was over 11000 nM, the “PKMYT1 vs. WEE1 selectivity” value (WEE1; [2]) was “X (100-<1000 fold)” and the IC50 (Human PKMYT1; [3]) was 50 to 1000 nM.
`CC(=O)Nc1ccc(Nc2ncc(C(=O)Nc3c(C)ccc(O)c3C)s2)cc1` [BAA-513, 2-((4-Acetamidophenyl)amino)-N-(3-hydroxy-2,6-dimethylphenyl)thiazole-5-carboxamide] was tested, and the IC50 (WEE1; WEE1 15 nM, banded values) was 1000 to 11000 nM, the “PKMYT1 vs. WEE1 selectivity” value (WEE1; banded) was “X (100-<1000 fold)” and the IC50 (Human PKMYT1; [4]) was under 50 nM.
For `Cc1ccc(O)c(C)c1NC(=O)c1cnc(Nc2cc(C(=O)N3CCCC3)n(C)n2)s1` [BAA-544, N-(3-hydroxy-2,6-dimethylphenyl)-2-((1-methyl-5-(pyrrolidine-1-carbonyl)-1H-pyrazol-3-yl)amino)thiazole-5-carboxamide], the IC50 (WEE1; WEE1 15 nM, banded values) was 1000 to 11000 nM, the “PKMYT1 vs. WEE1 selectivity” value (WEE1; banded) was “W (10-<100 fold)” and the IC50 (Human PKMYT1; [4]) was 50 to 1000 nM.
`Cc1c(O)cc(Br)c(C)c1NC(=O)c1cnc(Nc2cc(C)n(C3CCS(=O)(=O)C3)n2)s1` (stereo not drawn) [BAA-563, N-(3-Bromo-5-hydroxy-2,6-dimethyl-phenyl)-2-[[1-(1,1-dioxothiolan-3-yl)-5-methyl-pyrazol-3-yl]amino]thiazole-5-carboxamide] was tested, and the IC50 (WEE1; WEE1 15 nM, banded values) was 1000 to 11000 nM, the “PKMYT1 vs. WEE1 selectivity” value (WEE1; banded) was “W (10-<100 fold)” and the IC50 (Human PKMYT1; [4]) was 50 to 1000 nM.
`Cc1ccc(O)c(C)c1NC(=O)c1cnc(Nc2ccc(C(C)(C)C)cc2)s1` [BAA-281, 2-((4-(tert-butyl)phenyl)amino)-N-(3-hydroxy-2,6-dimethylphenyl)thiazole-5-carboxamide] was tested, and the IC50 (WEE1; [1]) was over 11000 nM, the “PKMYT1 vs. WEE1 selectivity” value (WEE1; [2]) was “X (100-<1000 fold)” and the IC50 (Human PKMYT1; [3]) was 50 to 1000 nM.
In the case of `Cc1ccc(O)c(C)c1NC(=O)c1cnc(NC2Cc3ccccc3C2)s1` [BAA-353, 2-((2,3-dihydro-1H-inden-2-yl)amino)-N-(3-hydroxy-2,6-dimethylphenyl)thiazole-5-carboxamide], the IC50 (WEE1; [1]) is reported as over 11000 nM, the “PKMYT1 vs. WEE1 selectivity” value (WEE1; [2]) is reported as “W (10-<100 fold)” and the IC50 (Human PKMYT1; [3]) is reported as 1000 to 11000 nM.
In the case of `Cc1ccc(O)c(C)c1NC(=O)c1cnc(Nc2ccn(C)n2)s1` [BAA-004, N-(3-hydroxy-2,6-dimethyl-phenyl)-2-[(1-methylpyrazol-3-yl)amino]thiazole-5-carboxamide], the IC50 (WEE1; [1]) is reported as 1000 to 11000 nM, the “PKMYT1 vs. WEE1 selectivity” value (WEE1; [2]) is reported as “X (100-<1000 fold)” and the IC50 (Human PKMYT1; [3]) is reported as 50 to 1000 nM. For the same compound, the IC50 (Human PKMYT1; PKMYT1 biochemical ADP-Glo enzymatic assay, Comparison Data 2) was 55 nM, the “improvement in PKMYT1 IC50 as compared to REF-003” value (Human PKMYT1; vs REF-003) was 987 fold and the “improvement in PKMYT1 IC50 as compared to REF-004” value (Human PKMYT1; vs REF-004) was over 1800 fold.
With `Cc1ccc(O)c(C)c1NC(=O)c1cnc(Nc2cccc3c2CCC3)s1` [BAA-443, 2-((2,3-dihydro-1H-inden-4-yl)amino)-N-(3-hydroxy-2,6-dimethylphenyl)thiazole-5-carboxamide] the IC50 (WEE1; WEE1 15 nM, banded values) was over 11000 nM, the “PKMYT1 vs. WEE1 selectivity” value (WEE1; banded) was “X (100-<1000 fold)” and the IC50 (Human PKMYT1; [4]) was 50 to 1000 nM.
